Laboratory results from patent publication US8022225B2, “Triazole derivative” (Taisho Pharmaceutical Co., Ltd, priority 2004, dated 2011).

Legend:
human Edg-1(S1P1) [1] = target: T1, human Edg-1(S1P1) (Homo sapiens, UniProt P21453); experiment: Membrane system binding test: inhibition of [33P]-S1P binding to the membrane fraction of Edg-1(S1P1) gene transferred HEK-293 cells; details: 10 μM compound; [33P]-S1P 0.1 nM; membrane fraction of Edg-1(S1P1) gene transferred HEK-293 cells; read-out: Membrane system binding test % inhibition (10 μM)
T1 construct: expressed in transfected cells; host or cells: HEK-293
T1 sequence (P21453 whole entry): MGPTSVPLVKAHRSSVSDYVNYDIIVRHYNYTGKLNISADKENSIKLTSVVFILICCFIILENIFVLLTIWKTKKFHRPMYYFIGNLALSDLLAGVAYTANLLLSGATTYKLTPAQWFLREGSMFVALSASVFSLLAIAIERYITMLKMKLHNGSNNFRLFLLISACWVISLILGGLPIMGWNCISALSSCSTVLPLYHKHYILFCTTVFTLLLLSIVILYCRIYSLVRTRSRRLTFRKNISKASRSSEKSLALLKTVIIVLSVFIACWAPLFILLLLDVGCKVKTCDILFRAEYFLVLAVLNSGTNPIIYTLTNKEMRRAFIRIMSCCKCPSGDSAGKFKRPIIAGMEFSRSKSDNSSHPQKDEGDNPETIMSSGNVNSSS
Description: The membrane fraction was obtained by treating the cells with a solubilizing buffer (1 mM Tris/HCl, pH 7.2) for 10 minutes on ice, centrifuging the system (1000×g, 5 min) to remove insoluble fractions, and then centrifuging the system (40000×g, 30 min, 4° C.). The resulting membrane fraction was dissolved in a binding buffer (20 mM Tris-HCl, pH 7.4, 100 mM NaCl, 15 mM NaF, 2 mM deoxypyridoxine, 4 mg/mL fatty acid-free BSA), and then [^33P]-S1P (produced by ARC, end concentration 0.1 nM) and a DMSO solution of the test compound (end concentration of the compound: 10^−5 M, end concentration of DMSO: 0.1%) were added, followed by stirring the mixture and subsequently treating it for 1 hour at 30° C. Using a harvester, the membrane fraction was harvested onto unifilter-96GF/C filter (produced by Perkin-Elmer). Then, the filter with the membrane fraction was washed 4 times with the binding buffer, and the filter was dried. To the filter, 25 μL Microscint 0 (produced by Perkin-Elmer) was added, and the assay system was measured for radioactivity by means of Top Count NXT (Packard). Based on the radioactivity, the amount (A) of binding of [^33P]-S1P to the membrane fraction upon addition of the compound was calculated.
The same procedure was performed in the absence of the test compound, and the amount (B) of binding of [^33P]-S1P was calculated. Moreover, the same procedure was performed in the absence of the test compound with the use of HEK-293 cells, to which the Edg-1(S1P1) gene had not been transferred, and the background amount (C) of binding of [^33P]-S1P was calculated.
The Edg-1(S1P1) binding inhibition rate of the compound, calculated from the following equation, is shown in […]

human Edg-1(S1P1) [2] = target: T1, human Edg-1(S1P1); experiment: Cell system binding test: inhibition of [3H]-S1P binding to Edg-1(S1P1) gene transferred HEK-293 cells; details: 10 μM compound, [3H]-S1P 10 nM, read-out: Cell system binding test % inhibition (10 μM)

C=CCSc1nnc([C@@H](Cc2ccccc2)NS(=O)(=O)c2ccc(Cl)cc2)n1CC [Compound 138]
inhibition at 10 µM (human Edg-1(S1P1) [1]): 102% | inhibition at 10 µM (human Edg-1(S1P1) [2]): 94.7%

CCCSc1nnc([C@@H](Cc2ccccc2)NS(=O)(=O)c2ccc(Cl)cc2)n1CC [Compound 139]
inhibition at 10 µM (human Edg-1(S1P1) [1]): 107% | inhibition at 10 µM (human Edg-1(S1P1) [2]): 91%

C=CCSc1nnc([C@@H](Cc2ccccc2)NS(=O)(=O)c2ccc(Cl)cc2)n1CCC [Compound 141]
inhibition at 10 µM (human Edg-1(S1P1) [1]): 79.5% | inhibition at 10 µM (human Edg-1(S1P1) [2]): 94.8%

C=CCSc1nnc([C@@H](Cc2ccccc2)NS(=O)(=O)c2ccc(Cl)cc2)n1C(C)C [Compound 143]
inhibition at 10 µM (human Edg-1(S1P1) [1]): 88.7% | inhibition at 10 µM (human Edg-1(S1P1) [2]): 96%

C=CCSc1nnc(C(Cc2ccccc2)NS(=O)(=O)c2ccc(F)cc2)n1CC (stereo not drawn) [Compound 169]
inhibition at 10 µM (human Edg-1(S1P1) [1]): 72.9% | inhibition at 10 µM (human Edg-1(S1P1) [2]): 67.5%

CCn1c(OC)nnc1[C@@H](C)NS(=O)(=O)c1ccc(Cl)cc1 [Compound 185]
inhibition at 10 µM (human Edg-1(S1P1) [1]): 86.6% | inhibition at 10 µM (human Edg-1(S1P1) [2]): 87.4%

CCOc1nnc([C@@H](C)NS(=O)(=O)c2ccc(Cl)cc2)n1CC [Compound 186]
inhibition at 10 µM (human Edg-1(S1P1) [1]): 94.5% | inhibition at 10 µM (human Edg-1(S1P1) [2]): 89.3%

CCn1c(OCCN(C)C)nnc1[C@@H](C)NS(=O)(=O)c1ccc(Cl)cc1 [Compound 187]
inhibition at 10 µM (human Edg-1(S1P1) [1]): 46.4% | inhibition at 10 µM (human Edg-1(S1P1) [2]): 82.9%

CCn1c(OCCCN(C)C)nnc1[C@@H](C)NS(=O)(=O)c1ccc(Cl)cc1 [Compound 188]
inhibition at 10 µM (human Edg-1(S1P1) [1]): 46.3% | inhibition at 10 µM (human Edg-1(S1P1) [2]): 82%

CCn1c(OCCCCCCN(C)C)nnc1[C@@H](C)NS(=O)(=O)c1ccc(Cl)cc1 [Compound 189]
inhibition at 10 µM (human Edg-1(S1P1) [1]): 107% | inhibition at 10 µM (human Edg-1(S1P1) [2]): 105%

CCn1c(OCCO)nnc1[C@@H](C)NS(=O)(=O)c1ccc(Cl)cc1 [Compound 190]
inhibition at 10 µM (human Edg-1(S1P1) [1]): 41.3% | inhibition at 10 µM (human Edg-1(S1P1) [2]): 91.1%

CCn1c(OCCCO)nnc1[C@@H](C)NS(=O)(=O)c1ccc(Cl)cc1 [Compound 191]
inhibition at 10 µM (human Edg-1(S1P1) [1]): 88.3% | inhibition at 10 µM (human Edg-1(S1P1) [2]): 97.1%

CCCCCCCCCCCCCCCCOc1nnc([C@@H](C)NS(=O)(=O)c2ccc(Cl)cc2)n1CC [Compound 192]
inhibition at 10 µM (human Edg-1(S1P1) [1]): 105% | inhibition at 10 µM (human Edg-1(S1P1) [2]): 75.5%

CCn1c(OC)nnc1[C@H](C)NS(=O)(=O)c1cccc(Cl)c1 [Compound 193]
inhibition at 10 µM (human Edg-1(S1P1) [1]): 64.4% | inhibition at 10 µM (human Edg-1(S1P1) [2]): 108%

CCCOc1nnc([C@@H](C)NS(=O)(=O)c2ccc(OC)cc2)n1CC [Compound 195]
inhibition at 10 µM (human Edg-1(S1P1) [1]): 91.2% | inhibition at 10 µM (human Edg-1(S1P1) [2]): 103%

CCCOc1nnc([C@@H](C)NS(=O)(=O)c2ccc(C)cc2)n1CC [Compound 196]
inhibition at 10 µM (human Edg-1(S1P1) [1]): 88.5% | inhibition at 10 µM (human Edg-1(S1P1) [2]): 106%

CCn1c(OC)nnc1[C@H](C)NS(=O)(=O)c1ccc(NC(C)=O)cc1 [Compound 198]
inhibition at 10 µM (human Edg-1(S1P1) [1]): 46.7% | inhibition at 10 µM (human Edg-1(S1P1) [2]): 92.5%

CCn1c(OC)nnc1[C@@H](C)NS(=O)(=O)c1ccc(C(C)=O)cc1 [Compound 199]
inhibition at 10 µM (human Edg-1(S1P1) [1]): 54.9% | inhibition at 10 µM (human Edg-1(S1P1) [2]): 93%

CCn1c(OC)nnc1[C@@H](C)NS(=O)(=O)c1ccc(Br)cc1 [Compound 200]
inhibition at 10 µM (human Edg-1(S1P1) [1]): 93.3% | inhibition at 10 µM (human Edg-1(S1P1) [2]): 97.4%

CCn1c(OC)nnc1[C@H](C)NS(=O)(=O)c1ccc(C(C)(C)C)cc1 [Compound 201]
inhibition at 10 µM (human Edg-1(S1P1) [1]): 45.3% | inhibition at 10 µM (human Edg-1(S1P1) [2]): 92.6%

CCCCS(=O)(=O)N[C@H](C)c1nnc(OC)n1CC [Compound 202]
inhibition at 10 µM (human Edg-1(S1P1) [1]): 60.3% | inhibition at 10 µM (human Edg-1(S1P1) [2]): 96.6%

CCn1c(OC)nnc1[C@@H](C)NS(=O)(=O)c1cc(Br)c(Br)s1 [Compound 203]
inhibition at 10 µM (human Edg-1(S1P1) [1]): 88.3% | inhibition at 10 µM (human Edg-1(S1P1) [2]): 97.9%

CCn1c(OC)nnc1[C@H](C)NS(=O)(=O)c1ccccc1Br [Compound 204]
inhibition at 10 µM (human Edg-1(S1P1) [1]): 45.4% | inhibition at 10 µM (human Edg-1(S1P1) [2]): 97.8%

CCCCOc1ccc(S(=O)(=O)N[C@@H](C)c2nnc(OC)n2CC)cc1 [Compound 205]
inhibition at 10 µM (human Edg-1(S1P1) [1]): 47.4% | inhibition at 10 µM (human Edg-1(S1P1) [2]): 99.6%

CCn1c(OC)nnc1[C@@H](C)NS(=O)(=O)c1cccc(Br)c1 [Compound 206]
inhibition at 10 µM (human Edg-1(S1P1) [1]): 86.2% | inhibition at 10 µM (human Edg-1(S1P1) [2]): 103%

CCCCc1ccc(S(=O)(=O)N[C@H](C)c2nnc(OC)n2CC)cc1 [Compound 207]
inhibition at 10 µM (human Edg-1(S1P1) [1]): 43.5% | inhibition at 10 µM (human Edg-1(S1P1) [2]): 95.8%

CCn1c(OC)nnc1[C@@H](C)NS(=O)(=O)c1ccc(Br)s1 [Compound 208]
inhibition at 10 µM (human Edg-1(S1P1) [1]): 93% | inhibition at 10 µM (human Edg-1(S1P1) [2]): 99.9%
